# Laboratory results: patent publication US9315544B2, “Method of treating eosinophilia by administering an immunomodulating peptide” (National Tsing Hua University, priority 2012, dated 2016)
# Assays:
# CCL-11 = experiment: Cytokine ELISA of lung protein extract (CCL-11); type: in vivo, BALB/c mouse; conditions: eIN+mIT, mIT+eIN and eIN+mIT+eIN groups
# From the text: (§1) FIG. 4 illustrates experimental design. All groups except control group were immunized with mite crude extract allergen on days 1 and 8, then mite crude extract allergen intratracheally on day 15 in all mite treated group, BALB/c mouse were divided into six groups (1) control group (PBS), (2) mites delivered intratracheally (mIT, mite on day 15) alone, (3) CMP intranasal (eIN, CMP on days 1 to 22) alone, (4) preventive-treatment group (eIN+mIT, CMP on days 1 to 14, mite on day 15) (5) therapy-treatment group (mIT+eIN, mite on day 15, CMP on days 15 to 22), and (6) preventive- and therapeutic-treatment group (eIN+mIT+eIN, CMP on days 1 to 22, mite on day 15).
# (§2) FIG. 9 illustrates inhibitory effect of CMP on lung protein extract. Lung protein extracts from different groups of mouse were assayed for the indicated cytokines. Data represent one of three independent experiments. Levels of CCL-11, IL-5, IL-13 and IL-17A/F levels in lung protein extracts from mouse from treatment groups were measured by Enzyme-linked immunosorbent assay (ELISA). Each result was expressed as the mean±S.D., n=4. **, P<0.01, ***, P<0.001. […]
# (§3) Levels of cytokines from lung protein extract were measured by ELISA. […] The microplates were read at 450 nm with an ELISA reader (Thermo Labsystems, Waltham, Mass., USA). […]
# CCL11 = experiment: Cytokine mRNA expression analysis by quantitative real-time PCR (CCL11); type: cell-based; conditions: Beas-2B cells
# Protocol: FIG. 1A-1B illustrates immunomodulatory effect of CMP on transcription of cytokine. Beas-2B cells were starved with serum free medium for 24 h, followed by stimulation with refold 5 μM ECP or 5 μM CMP or co-treatment with 5 μM ECP and 5 μM CMP at 37° C. for (A) 6 h and (B) 12 h, respectively. The mRNA quantities of CCL11, CCL24 and CCL26 were determined by real-time PCR. Beas-2B cells without protein treatment were used as control. […] The data represented at least three independent experiments and the error bar was shown as standard deviation (SD).
# For inflammatory cytokine expression analysis, Beas-2B cells were stimulated with three different conditions: 1) 5 μM ECP, 2) 5 μM CMP and 3) co-incubated with 5 μM ECP and 5 μM CMP at 37° C. for 6 and 12 h. After incubation, total RNAs were extracted with RNA TRIzol reagent (Invitrogen, Inc) and reverse transcribed with MoMLV-reverse transcriptase (Promega, Madison, Wis.). SYBR Green-based quantitative real-time PCR will be used to quantify the gene of interest, relative expression ratios of genes of interest were normalized to glyceraldehyde-3-phosphate dehydrogenase (GAPDH) transcripts. Changes in cytokine expression were measured by quantitative real-time PCR (qRT-PCR) employing the StepOne™ amplification and detection system (Life Technologies Corporation). Data were analyzed by application of the StepOne™ quantification program software (version 2.22, Life Technologies Corporation) and expressed as means±S.D. Significance analysis was carried out by a two-sample unequal variance t-test with two-tailed distribution (post test). Significance was set as P<0.05.
# ECP, the best known marker protein of asthma, is involved in triggering cytokine expression in bronchial epithelial cells. Real-time PCR analysis was carried out to quantify expression levels of indicated cytokines upon treatment with recombinant ECP in the presence and absence of CMP Bronchial epithelial Beas-2B cells were separately cultured in serum-free medium in the presence of 5 μM ECP, 5 μM CMP and both 5 μM ECP and 5 μM CMP for 6 and 12 h to monitor cytokine and chemokine gene modulation using real-time quantitative PCR. Untreated Beas-2B cells incubated at the same condition for 6 h and 12 h were used as negative controls. Here variation of gene expression levels of chemokines including CCL11, CCL24 and CCL26 was analyzed.
# IL-5 = experiment: Cytokine ELISA of lung protein extract (IL-5); type: in vivo, BALB/c mouse; conditions: mIT+eIN, eIN+mIT+eIN and eIN+mIT groups
# From the text: as §1, §2, §3
sequence,measurement,setting,value
NYRWRCKNQN (CMP),CCL-11 in lung protein extract compared with mIT group,CCL-11,lower concentrations
same,"effect on chemokine gene expression (CCL11, CCL24, CCL26)","CCL11; 5 μM CMP alone, 6 and 12 h",no effect
same,ECP-induced gene expression of CCL11,"CCL11; co-treatment 5 μM ECP and 5 μM CMP, 6 h",significant reduction
same,IL-5 levels in lung protein extract compared with mIT group,IL-5,lower
